How the values were obtained:
Type in all cases: in vivo
[1] = tested on: weeds; experiment: Pre-emergence test (overall statement); settings: application rates between 30 g and 125 g of a.i. per hectare
Description: (§1) To produce a suitable preparation of active compound, 1 part by weight of active compound is mixed with the stated amount of solvent, the stated amount of emulsifier is added and the concentrate is diluted with water to the desired concentration.
(§2) Seeds of the test plants are sown in normal soil. After about 24 hours, the soil is sprayed with the preparation of the active compound. Advantageously, the amount of water per unit area is kept constant. The active compound concentration in the preparation is not important, only the active compound application rate per unit area is critical.
(§3) After three weeks, the degree of damage to the plants is rated in % damage in comparison with the development of the untreated control.
(§4) The figures denote: • 0%=no effect (like untreated control) • 100%=total destruction

[2] = tested on: Sorghum; experiment: Pre-emergence test/greenhouse; settings: after three weeks
Description: as §1, §2, §3, §4

[3] = tested on: Amaranthus; experiment: Pre-emergence test/greenhouse; settings: after three weeks
Description: as §1, §2, §3, §4

[4] = tested on: Stellaria; experiment: Pre-emergence test/greenhouse; settings: after three weeks
Description: as §1, §2, §3, §4

[5] = tested on: Alopecurus; experiment: Pre-emergence test/greenhouse; settings: after three weeks
Description: as §1, §2, §3, §4

[6] = tested on: Lolium; experiment: Pre-emergence test/greenhouse; settings: after three weeks
Description: as §1, §2, §3, §4

[7] = tested on: Chenopodium; experiment: Pre-emergence test/greenhouse; settings: after three weeks
Description: as §1, §2, §3, §4

[8] = tested on: weeds; experiment: Post-emergence test/greenhouse
Description: as §1
(§5) Test plants which have a height of 5-15 cm are sprayed with the preparation of the active compound in such a way as to apply the particular amounts of active compound desired per unit area. The concentration of the spray liquor is chosen so that the amounts of active compound desired in each case are applied in 1000 l of water/ha.
as §3, §4

[9] = tested on: Alopecurus; experiment: Post-emergence test/greenhouse; settings: rated after three weeks vs untreated control
Description: as §1, §5, §3, §4

[10] = tested on: Abutilon; experiment: Post-emergence test/greenhouse; settings: rated after three weeks vs untreated control
Description: as §1, §5, §3, §4

[11] = tested on: Matricaria; experiment: Post-emergence test/greenhouse; settings: rated after three weeks vs untreated control
Description: as §1, §5, §3, §4

[12] = tested on: Echinochloa; experiment: Post-emergence test/greenhouse; settings: rated after three weeks vs untreated control
Description: as §1, §5, §3, §4

[13] = application rate 30 g of ai./ha
[14] = application rate 60 g of ai./ha

Row | Structure (SMILES) | activity against weeds [1] | Sorghum, % damage ([2]; 60 g of ai./ha) [%] | Amaranthus, % damage ([3]; 60 g of ai./ha) [%] | Steltaria, % damage ([4]; 60 g of ai./ha) [%] | Alopecurus, % damage ([5]; 60 g of ai./ha) [%] | Lolium, % damage ([6]; 60 g of ai./ha) [%] | Chenopodium, % damage ([7]; 60 g of ai./ha) [%] | activity against weeds [8] | degree of damage to the plants, Alopecurus [9, 14] [%] | degree of damage to the plants, Abutilon [10, 14] [%] | degree of damage to the plants, Matricaria [11, 14] [%] | degree of damage to the plants, Echinochloa [12, 14] [%] | other results
1 | CCOc1cccc(C(F)(F)F)c1S(=O)(=O)NC(=O)Nc1nc(OC)nc(OC)n1 [Example 7] | very strong activity against weeds | 100 | 95 | 95 | 100 | 95 | 100 | very strong activity against weeds | – | – | – | – | degree of damage to the plants, Alopecurus [9, 13]: 95%; degree of damage to the plants, Abutilon [10, 13]: 95%; degree of damage to the plants, Matricaria [11, 13]: 100%; degree of damage to the plants, Echinochloa [12, 13]: 95%
2 | CCCOc1cccc(C(F)(F)F)c1S(=O)(=O)NC(=O)Nc1nc(C)nc(OC)n1 [Example 9] | very strong activity against weeds | – | – | – | – | – | – | very strong activity against weeds | – | – | – | – | Sorghum, % damage ([2]; 30 g of ai./ha): 90%; Amaranthus, % damage ([3]; 30 g of ai./ha): 100%; Steltaria, % damage ([4]; 30 g of ai./ha): 100%; Alopecurus, % damage ([5]; 30 g of ai./ha): 100%; Lolium, % damage ([6]; 30 g of ai./ha): 100%; Chenopodium, % damage ([7]; 30 g of ai./ha): 100%; degree of damage to the plants, Alopecurus ([9]; application rate 8 g of ai./ha): 90%; degree of damage to the plants, Abutilon ([10]; application rate 8 g of ai./ha): 100%; degree of damage to the plants, Matricaria ([11]; application rate 8 g of ai./ha): 95%; degree of damage to the plants, Echinochloa ([12]; application rate 8 g of ai./ha): 80%
3 | COc1nc(C)nc(NC(=O)NS(=O)(=O)c2c(OC(C)C)cccc2C(F)(F)F)n1 [Example 12] | very strong activity against weeds | – | – | – | – | – | – | very strong activity against weeds | – | – | – | – | Sorghum, % damage ([2]; 30 g of ai./ha): 100%; Amaranthus, % damage ([3]; 30 g of ai./ha): 100%; Steltaria, % damage ([4]; 30 g of ai./ha): 100%; Alopecurus, % damage ([5]; 30 g of ai./ha): 100%; Lolium, % damage ([6]; 30 g of ai./ha): 100%; Chenopodium, % damage ([7]; 30 g of ai./ha): 95%; degree of damage to the plants, Alopecurus [9, 13]: 95%; degree of damage to the plants, Abutilon [10, 13]: 95%; degree of damage to the plants, Matricaria [11, 13]: 100%; degree of damage to the plants, Echinochloa [12, 13]: 90%
4 | COc1cc(Cl)nc(NC(=O)NS(=O)(=O)c2c(OC)cccc2C(F)(F)F)n1 [Example 15] | very strong activity against weeds | 95 | 95 | 95 | 100 | 95 | 100 | very strong activity against weeds | 70 | 95 | 100 | 90 | –
5 | CCOc1cccc(C)c1S(=O)(=O)NC(=O)Nc1nc(C)cc(OC)n1 [Example 27] | very strong activity against weeds | 100 | 100 | 100 | 100 | 100 | 100 | very strong activity against weeds | 95 | 100 | 90 | 95 | –
6 | CCOc1cccc(C)c1S(=O)(=O)NC(=O)Nc1nc(OC)nc(OC)n1 [Example 31] | very strong activity against weeds | 90 | 95 | 95 | 95 | 100 | 100 | very strong activity against weeds | 80 | 100 | 100 | 80 | –
7 | CCOc1cccc(C)c1S(=O)(=O)NC(=O)Nc1nc(C)nc(OC)n1 [Example 32] | very strong activity against weeds | 95 | 100 | 100 | 95 | 100 | 100 | very strong activity against weeds | 70 | 100 | 100 | 90 | –
